From ChEMBL document CHEMBL3217580, “Structureactivity relationships of benzimidazole derivatives as antiparasitic agents: Dual activity-difference (DAD) maps” (Medchemcomm, 2011)

Experiments:
Giardia intestinalis = test: Antimicrobial activity against Giardia intestinalis; format: functional, organism-based, Giardia duodenalis; conditions: for IC50: Giardia duodenalis
Trichomonas vaginalis = test: Antimicrobial activity against Trichomonas vaginalis; format: functional, organism-based
[1] = Trichomonas vaginalis, read-out: pIC50 (converted)
[2] = Trichomonas vaginalis, read-out: IC50

Structure (SMILES) | pIC50 (Giardia intestinalis) | IC50 (Giardia intestinalis; read-out: pIC50 (converted)) [nM] | pIC50 (Trichomonas vaginalis) | IC50 (Trichomonas vaginalis; [1]) [nM] | IC50 (Trichomonas vaginalis; [2]) [nM] | IC50 (Giardia intestinalis; read-out: IC50) [nM] | IC50 (Trichomonas vaginalis; read-out: IC50) [nM]
CN(C)CCSc1nc2c(Cl)cc(Cl)cc2[nH]1 | 7.68 | 20.9 |  |  |  |  | 
FC(F)(F)c1nc2cc(Br)ccc2[nH]1 | 6.19 | 646 | 5.8 | 1580 |  |  | 
CCCSc1ccc2[nH]c(C(F)(F)F)nc2c1 | 5.82 | 1510 | 6.46 | 347 |  |  | 
O=C(c1ccccc1)c1ccc2[nH]c(C(F)(F)F)nc2c1 | 5.64 | 2290 | 4.55 | 28200 | 28400 | 2310 | 
FC(F)(F)c1nc2c(Br)c(Br)c(Br)cc2[nH]1 | 6.85 | 141 | 6.57 | 269 | 270 |  | 270
CCN(CC)CCSc1nc2c(Cl)cc(Cl)cc2[nH]1 | 7.72 | 19.1 | 7.39 | 40.7 |  |  | 
CN(C)CCCSc1nc2c(Cl)cc(Cl)cc2[nH]1 | 7.14 | 72.4 | 7.07 | 85.1 | 85 | 72 | 
Clc1cc(Cl)c2nc(SCCN3CCCCC3)[nH]c2c1 | 7.26 | 55 | 7.14 | 72.4 |  |  | 
Clc1cc(Cl)c2nc(SCCN3CCOCC3)[nH]c2c1 | 7.41 | 38.9 | 7.29 | 51.3 |  |  | 

Now from value to compound:

pIC50 (Giardia intestinalis) | IC50 (Giardia intestinalis; read-out: pIC50 (converted)) [nM] | pIC50 (Trichomonas vaginalis) | IC50 (Trichomonas vaginalis; [1]) [nM] | IC50 (Trichomonas vaginalis; [2]) [nM] | IC50 (Giardia intestinalis; read-out: IC50) [nM] | IC50 (Trichomonas vaginalis; read-out: IC50) [nM] | Structure (SMILES)
6.6 | 251 | 6.72 | 191 |  |  |  | FC(F)(F)c1nc2c(Br)cc(Br)cc2[nH]1
7.42 | 38 | 6.16 | 692 |  |  |  | OCCSc1nc2c(Cl)cc(Cl)cc2[nH]1
6.98 | 105 | 6.83 | 148 |  |  |  | OCCSc1nc2c(Br)cc(Br)cc2[nH]1
7.54 | 28.8 | 6.51 | 309 |  |  |  | CN(C)CCSc1nc2c(Br)cc(Br)cc2[nH]1
7.46 | 34.7 | 7.53 | 29.5 | 29 |  |  | CCN(CC)CCSc1nc2c(Br)cc(Br)cc2[nH]1
7.69 | 20.4 | 7.99 | 10.2 | 11 | 20 |  | CN(C)CCCSc1nc2c(Br)cc(Br)cc2[nH]1
6.9 | 126 | 7.69 | 20.4 |  |  |  | Brc1cc(Br)c2nc(SCCN3CCCCC3)[nH]c2c1
7.23 | 58.9 | 7.23 | 58.9 |  |  |  | Brc1cc(Br)c2nc(SCCN3CCOCC3)[nH]c2c1
7.09 | 81.3 | 7.96 | 11 | 10 |  |  | O=[N+]([O-])c1ccc(CCSc2nc3c(Cl)cc(Cl)cc3[nH]2)cc1
7.43 | 37.2 | 8.48 | 3.31 | 3 |  |  | O=[N+]([O-])c1ccc(CCSc2nc3c(Br)cc(Br)cc3[nH]2)cc1
